In ChEMBL document CHEMBL1151040, “Synthetic inhibitors of interleukin-6 I: 2,3,7,8-tetrahydro-4-aryl-1H-cyclopent [e] imidazo [1,2-a]- pyridin-5(6H)-one and related compounds” (Bioorg Med Chem Lett, 1995):

What was measured:
WEHI265.1 [1] = test: In vitro inhibitory activity against lipopolysaccharide (LPS)-induced interleukin 6 production in murine myelomonocytic leukemia (WEHI-265.1) cells at a concentration of 10 uM; type: functional; settings: Mus musculus
Mus musculus [2] = test: Effective dose of compound against serum interleukin 6 (IL-6) in C3H mice when administered intraperitoneally; type: functional; settings: ip
WEHI265.1 [3] = test: In vitro inhibitory activity against lipopolysaccharide (LPS)-induced interleukin 6 (IL-6) production in murine myelomonocytic leukemia (WEHI-265.1) cells; type: functional, cell-based; settings: Mus musculus
Mus musculus [4] = test: Inhibitory activity against LPS-induced interleukin 6 (IL-6) in the serum of C3H mice, at a dose of 25 mpk by oral administration; type: functional
Mus musculus [5] = test: Inhibitory activity against LPS-induced interleukin 6 (IL-6) in the serum of C3H mice, at a dose of 25 mpk by intraperitoneal administration; type: functional; settings: ip
WEHI265.1 [6] = test: In vitro inhibitory activity against lipopolysaccharide (LPS) -induced IL-6 production in murine myelomonocytic uM; type: functional, Mus musculus
Mus musculus [7] = test: Effective dose of compound against serum interleukin 6 (IL-6) in C3H mice when administered orally; type: functional; settings: po

IC50 (WEHI265.1 [3]) [µM]	Structure (SMILES)	inhibition at 10 µM (WEHI265.1 [1]) [%]	also measured
–	OC1=C(c2cccnc2)C2=NCCN2C2=C1CCC2	0	–
–	OC1=CC2=NCCN2C2=C1CCC2	38	–
–	CCOC(=O)C1=C(O)C2=C(CCC2)N2CCN=C12	58	–
–	OC1=C(Sc2ccccc2)C2=NCCN2C2=C1CCC2	63	–
–	CN1CCn2c3c(c(=O)c(-c4ccccc4)c21)CCC3	27	–
–	OC1=C(c2ccccc2C(F)(F)F)C2=NCCN2C2=C1CCC2	90	–
–	COc1ccccc1-c1c2n(c3c(c1=O)CCC3)CCN2	82	ED50 (Mus musculus [2]): 0.3 mg/kg
5	CC(=O)Nc1ccccc1-c1c2n(c3c(c1=O)CCC3)CCN2	74	–
2	Nc1ccccc1-c1c2n(c3c(c1=O)CCC3)CCN2	82	ED50 (Mus musculus [2]): 4 mg/kg; inhibition in vivo at 25 mg/kg (Mus musculus [4]): 72%
4	O=c1c2c(n3c(c1-c1ccccc1Cl)NCC3)CCC2	90	ED50 (Mus musculus [2]): 0.5 mg/kg
–	O=c1c2c(n3c(c1-c1ccccc1)N(Cc1ccccc1)CC3)CCC2	43	–
–	O=c1c2c(n3c(c1-c1ccccc1)OCC3)CCC2	20	–
6	O=[N+]([O-])c1ccccc1C1=C(O)C2=C(CCC2)N2CCN=C12	73	ED50 (Mus musculus [2]): 8 mg/kg; inhibition in vivo at 25 mg/kg (Mus musculus [4]): 78%
–	O=c1c2c(n3c(c1-c1ccccc1)SCC3)CCC2	52	–
–	OC1=C(c2ccccn2)C2=NCCN2C2=C1CCC2	55	–
–	OC1=C(c2ccccc2O)C2=NCCN2C2=C1CCC2	55	–
–	CSC1=C(O)C2=C(CCC2)N2CCN=C12	77	–
0.6	CCOC(=O)c1cccc(C2=C(O)C3=C(CCC3)N3CCN=C23)c1	83	–
–	O=C(O)c1cccc(C2=C(O)C3=C(CCC3)N3CCN=C23)c1	0	–
0.2	OC1=C(c2ccccc2)C2=NCCN2C2=C1CCC2	–	inhibition in vivo at 25 mg/kg (Mus musculus [5]): 77%; Inhibition (WEHI265.1 [6]): 74%; ED50 (Mus musculus [2]): 0.35 mg/kg; ED50 (Mus musculus [7]): 32 mg/kg; inhibition in vivo at 25 mg/kg (Mus musculus [4]): 39%
